Laboratory results published in patent publication US8980908B2, “Non-peptidyl, potent, and selective mu opioid receptor antagonists and their use in treating opioid addiction and opioid induced constipation” (Virginia Commonwealth University, priority 2009, dated 2015).
Where two headings read alike, the source gives them in different places.

How the values were obtained:
[1] = test system: morphine antinociceptive effect in mice; settings: antagonizing morphine 10 mg/kg; s.c.; cited from earlier work
[2] = test system: morphine antinociception in mice; test: Warm-water tail immersion test, blockade of morphine antinociception (Example 2); type: in vivo, mouse (Swiss Webster); settings: s.c., 5 min before morphine 10 mg/kg s.c.; 56 °C
[3] = in vivo; cited from earlier work
[4] = target: T1, MOR (Mus musculus, UniProt P42866); test: Competitive radioligand binding, [3H]naloxone, CHO cells (Example 7); parameters: expressed in transfected cells; host or cells: CHO (Chinese hamster ovary) cell line, membrane preparation; settings: Table 13; for Selectivity δ/μ / Selectivity κ/μ: Ki ratio; for Ki: [3H]naloxone, three experiments, read-out: Ki μ
Protocol: (§1) Aliquots of a membrane protein (30 μg) were incubated with the corresponding radioligand in the presence of different concentrations of the drug under investigation at 30° C. for 1 h. […] The potency of the drugs in displacing the specific binding of the radioligand was determined from data using linear regression analysis of Hill plots. The IC50 values will then be determined and corrected to Ki values using the Cheng-Prusoff equation. Functional assays were conducted in the same cell membranes used for the receptor binding assays. Membrane proteins (10 μg) were incubated with varying concentrations of drugs, GDP (μ: 10 μM; κ and δ: 20 μM) and 0.1 nM ^35S-GTP[γS] in assay buffer for 2 h (μ) or 1.5 h (κ and δ) at 30° C. Nonspecific binding was determined with 10 μM unlabeled GTP[γS].

[5] = target: DOR (UniProt P41143); test: DOR 35S-GTP[γS] binding assay (Example 7); type: biochemical; parameters: Ki δ; [3H]NTI; DOR 35S-GTP[γS]; other: three experiments; other: NAP; other: SNC80 normalized to 100%; settings: for DOR 35S-GTP[γS] Binding % Emax of SNC80: SNC80 normalized to 100%; for EC50: three experiments
Protocol: as §1

[6] = target: T2, KOR (Homo sapiens, UniProt P41145); test: Competitive radioligand binding, [3H]norBNI or [3H]DPN, CHO cells (Example 7); settings: Table 13; [3H]norBNI as radioligand; read-out: Ki κ
T2 construct: expressed in transfected cells; host or cells: CHO (Chinese hamster ovary) cell line, membrane preparation
Protocol: as §1

[7] = target: T1, MOR; test: MOR 35S-GTP[γS] binding assay (Example 7); type: biochemical; parameters: expressed in transfected cells; host or cells: CHO (Chinese hamster ovary) cell line, membrane preparation; settings: Table 13; for MOR 35S-GTP[γS] Binding % Emax of DAMGO: DAMGO normalized to 100%
Protocol: as §1

[8] = target: DOR (UniProt P41143); test: Competitive radioligand binding, [3H]NTI, CHO cells (Example 7); parameters: Ki δ; [3H]NTI; DOR 35S-GTP[γS]; other: three experiments; other: NAP; other: SNC80 normalized to 100%; settings: Table 13, read-out: Ki δ
Protocol: as §1

[9] = target: T2, KOR; test: KOR 35S-GTP[γS] binding assay (Example 7); type: biochemical; settings: for KOR 35S-GTP[γS] Binding % Emax of U50,488H: U50,488H normalized to 100%; for EC50: three experiments
Protocol: as §1

[10] = test system: Caco-2 cells; test: Bidirectional transport in Caco-2 cells; type: in vitro ADME
Protocol: To further characterize the permeability of compounds 8 and 12, they were evaluated in Caco-2 cells for their bidirectional transport capacity (FIG. 29).
Caco-2 (passages 45-47; ATCC, Manassas, Va.) cell culture and bidirectional permeability studies with polyester Transwell filters were performed as described previously.^67 Briefly, cells were cultured in Dulbecco's modified Eagle's medium (9.6 g/L glucose) with 10%/fetal bovine serum and supplemented with 100 unit/mL penicillin, 100 μg/mL streptomycin, and 5% nonessential amino acids for 22 days after seeding on 12 mm 0.4 μm #3460 Transwell-Clear inserts (Fisher Scientific) at a density of 80,000 cells/cm^2. […] A portion of the supernatants was analyzed by HPLC-UV using an Alltima HP C18 column (3 μm, 4.6×100 mm; Alltech, Deerfield, Ill.) at 270 nm for NAP, and a Microsorb-MV 100-3 C18 (4.6×100 mm; Varian) column for NMP or NGP at 266 nm. Analytes concentration was quantified from standard curves prepared in transport buffer-acetonitrile (4:1). […] Apparent permeability was then calculated using the following equation: Papp=J/(A×Ci), where J is the transport rate, A is the surface area of the cell monolayer, and Ci is the initial concentration of the dosing solution.

[11] = test system: morphine naive mice; test: Acute charcoal gavage and intestinal motility assay in morphine naive mice; settings: morphine 10 mg/kg
[12] = test system: mice; test: Tail flick test, acute antinociception (Example 7); settings: 10 mg/kg
[13] = target: T1, MOR; parameters: expressed in transfected cells; host or cells: CHO (Chinese hamster ovary) cell line, membrane preparation; settings: Table 13 controls and NAP; read-out: Ki μ (see reference 65); cited from earlier work
[14] = dose as high as 10 mg/kg; cited from earlier work
[15] = target: T1, MOR; test: 35S-GTP[γS]-binding functional assay in MOR expressing CHO cells (Example 2); type: biochemical; parameters: expressed in transfected cells; host or cells: CHO (Chinese hamster ovary) cell line, membrane preparation
Protocol: Furthermore, these systems express the receptor at high density to provide optimal signal-to-noise ratios in the radioligand and ^35S-GTP[γS] binding assays.
Aliquots of a membrane preparation were incubated with the radioligands in the presence of different concentrations of the drug under investigation at 30° C. for 1 h. […] The potency of the drugs in displacing the specific binding of the radioligand was determined from data using linear regression analysis of Hill plots. The IC50 values will then be determined and corrected to K1 values using the Cheng-Prusoff equation. Functional assays, including ^35S-GTP[γS]-binding assay were conducted in the same cell membranes used for the receptor binding assays.

[16] = test system: mouse gastrointestinal transit; settings: high doses; cited from earlier work
[17] = target: T1, MOR; parameters: expressed in transfected cells; host or cells: CHO (Chinese hamster ovary) cell line, membrane preparation; settings: Table 13, NAP, cited from earlier work
[18] = test system: Caco-2 cells; settings: cited from earlier work
[19] = target: DOR (UniProt P41143); type: binding; parameters: rows headed: Ki ± SEM [3H]NTI (δ); other: n=3; Ki ± SEM DOR; settings: n=3; read-out: Ki ± SEM DOR
[20] = target: T1, MOR; test: Competitive radioligand binding, [3H]naloxone, CHO cells (Example 2); parameters: expressed in transfected cells; host or cells: CHO (Chinese hamster ovary) cell line, membrane preparation; settings: n=3; read-out: Ki ± SEM MOR
[21] = target: T2, KOR; type: binding; settings: n=3; read-out: Ki ± SEM KOR
[22] = target: T1, MOR; test: [35S]GTPγS functional assay (Example 1); type: biochemical; parameters: expressed in transfected cells; host or cells: CHO (Chinese hamster ovary) cell line, membrane preparation; settings: Emax of compound vs Emax of DAMGO (normalized to 100%)
[23] = target: T1, MOR; test: Competitive radioligand binding, [3H]DAMGO, mono-cloned receptor in CHO cells (Example 1); parameters: expressed in transfected cells; host or cells: CHO (Chinese hamster ovary) cell line, membrane preparation; settings: read-out: Ki ± SEM [3H]DAMGO (μ); n=3
[24] = target: T2, KOR; type: binding; settings: n=3; read-out: Ki ± SEM [3H]norBNI (κ)
[25] = target: DOR (UniProt P41143); type: binding; parameters: rows headed: Ki ± SEM [3H]NTI (δ); other: n=3; Ki ± SEM DOR; settings: n=3; read-out: Ki ± SEM [3H]NTI (δ)

## C=CCN1CC[C@]23c4c5ccc(O)c4O[C@H]2C(=O)CC[C@@]3(O)[C@H]1C5 [Naloxone, reference compound]
[1]
  AD50 values (data taken from Li, et al.): 0.05 (0.03-0.09) mg/kg (95% CL)
[2]
  AD50 value for blockade of morphine antinociception: 0.05 (0.03 to 0.09) mg/kg (95% C.L.)
[3]
  systemic bioavailability: ~2%

## 17-Cyclopropylmethyl-3,14β-dihydroxy-4,5α-epoxy-6β-{[4′-(3′-methylpyridyl)]carboxamido}morphinan [Compound 8]
[4]
  Selectivity δ/μ: 470
  Selectivity κ/μ: 166
  Ki: 0.58 ± 0.25 nM
[5]
  DOR 35S-GTP[γS] Binding % Emax of SNC80: 90.2 ± 21.0%
  EC50: 38.6 ± 10 nM
[6]
  Ki: 96.7 ± 12.2 nM
[7]
  EC50: 1.52 ± 0.26 nM
  MOR 35S-GTP[γS] Binding % Emax of DAMGO: 30.63 ± 0.55%
[8]
  Ki: 273.6 ± 1.8 nM
[9]
  KOR 35S-GTP[γS] Binding % Emax of U50,488H: 31.4 ± 3.9%
  EC50: 26.4 ± 8.4 nM
[10]
  apparent permeability / bidirectional transport: low permeability

## CN1CC[C@]23c4c5ccc(O)c4O[C@H]2[C@@H](O)C=C[C@H]3[C@H]1C5.O=S(=O)(O)O [morphine, Morphine sulfate]
[11]
  intestinal motility (% of intestine length travelled by charcoal): 12.4±2.0%
[12]
  percentage maximum possible effect (% MPE): 100%

## 17-Cyclopropylmethyl-3,14β-dihydroxy-4,5α-epoxy-6β-{2′-[(pyridine-4″-yl)carboxamido]acetamido}morphinan [Compound 12]
[4]
  Selectivity δ/μ: 719
  Selectivity κ/μ: 278
  Ki: 0.73 ± 0.59 nM
[5]
  DOR 35S-GTP[γS] Binding % Emax of SNC80: 84.3 ± 23.2%
  EC50: 19 ± 2.9 nM
[6]
  Ki: 203 ± 67 nM
[7]
  EC50: 2.84 ± 0.53 nM
  MOR 35S-GTP[γS] Binding % Emax of DAMGO: 22.62 ± 0.66%
[8]
  Ki: 526 ± 78.3 nM
[9]
  KOR 35S-GTP[γS] Binding % Emax of U50,488H: 23.5 ± 1.6%
  EC50: 25 ± 22.4 nM
[10]
  apparent permeability / bidirectional transport: no significant difference in its bidirectional transport capacity

## 17-Cyclopropylmethyl-3,14β-dihydroxy-4,5α-epoxy-6β-[(4′-pyridyl)acetamido]morphinan [Compound 6]
[13]
  Ki: 0.37 ± 0.07 nM
[14]
  withdrawal symptoms: marginal withdrawing symptoms
[15]; n=3
  EC50: 1.15 ± 0.384 nM
  Emax (% Stim): 83.3 ± 3.1 % Stim
[15]; normalized to full agonist DAMGO (3 μM)
  Percent Max of DAMGO: 22.72 ± 0.84%
[16]
  diarrhea: incidence of diarrhea associated with high doses of NAP
[17]
  MOR 35S-GTP[γS] Binding % Emax of DAMGO (see reference 65): 22.72 ± 0.84%
[17]; read-out: MOR 35S-GTP[γS] Binding EC50 (see reference 65)
  EC50: 1.14 ± 0.38 nM
[2]
  AD50 value for blockade of morphine antinociception: 4.5198 (2.4570 to 8.269.12) mg/kg (95% C.L.)
[18]
  apparent permeability (words, reported previously): significantly low

## COC(=O)/C=C/C(=O)N[C@@H]1CC[C@@]2(O)[C@H]3Cc4ccc(O)c5c4[C@@]2(CCN3CC2CC2)[C@H]1O5 [β-FNA, β-funaltrexamine]
[19]
  Ki: 27.8 ± 4.6 nM
[20]
  Ki: 0.41 ± 0.04 nM
[21]
  Ki: 0.94 ± 0.05 nM
[22]
  Percent Max of DAMGO: 0.00%
[23]
  Ki: 0.41 ± 0.04 nM
[24]
  Ki: 0.94 ± 0.05 nM
[25]
  Ki: 27.8 ± 4.6 nM
